Results taken from US11109593B2, “Isoxazolin-5-one derivative and herbicide containing same as active ingredient” (HOKKO CHEMICAL INDUSTRY CO., LTD., priority 2017, dated 2021).

Legend:
Type in all cases: in vivo
Scirpus juncoides [1] = assay: Test Example 1: herbicidal effect test by treatment of rice paddy soil (immediately after seeding); settings: 120 g/10a active ingredient, dry weight vs untreated area, 14 days after treatment
In short: (§1)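 Applied at 120 g a.i./10 ares as diluted emulsion dropped into flooded (~3 cm) paddy soil pots right after sowing seeds 0–1 cm deep; greenhouse, two replicates. At day 14, dry weight of treated versus untreated plants gives % herbicidal rate.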

[2] = system: broad leaf weeds (Lindernia pyxidaria and Monochoria vaginalis); assay: as above; settings: 120 g/10a active ingredient, dry weight vs untreated area, 14 days after treatment; for pest or weed control at 1200 g/ha: 336 h
In short: as §1

Echinochloa crus-galli [3] = assay: as above; settings: 120 g/10a active ingredient, dry weight vs untreated area, 14 days after treatment
In short: as §1

Chenopodium album [4] = assay: Test Example 4: herbicidal effect test by treatment of leave and stem in dry field farming (seven days after seeding); settings: 120 g/10a active ingredient, emulsion sprayed seven days after seeding, evaluated 14 days after treatment
In short: (§2)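 Weeds were seeded at 20 seeds per species into the top 1 cm of alluvial upland soil in pots, then sprayed 7 days after seeding with water-diluted emulsifiable concentrate at 100 L/10 a, giving 120 g active ingredient/10 a. Duplicate pots; herbicidal rate (%) was 14 days post-treatment, from dry weight versus untreated.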

southern crabgrass [5] = assay: as above; settings: 120 g/10a active ingredient, emulsion sprayed seven days after seeding, evaluated 14 days after treatment
In short: as §2

Echinochloa crus-galli [6] = assay: as above; settings: 120 g/10a active ingredient, emulsion sprayed seven days after seeding, evaluated 14 days after treatment
In short: as §2

Amaranthus viridis [7] = assay: as above; settings: 120 g/10a active ingredient, emulsion sprayed seven days after seeding, evaluated 14 days after treatment
In short: as §2

Scirpus juncoides [8] = assay: Test Example 2: herbicidal effect test by treatment during growing period in paddy rice cultivation (seven days after seeding); settings: 120 g/10a active ingredient, assessed 14 days after treatment, dry weight vs untreated area
In short: (§3)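 Sow 30 seeds per species (0–1 cm) into puddled, fertilized paddy soil; keep flooded ~3 cm in greenhouse. Day 7 after seeding: drop water-diluted emulsion, 120 g a.i./10 ares. Harvest 14 d post-treatment; compare dry weight with untreated pots (duplicate).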

[9] = system: broad leaf weeds (Lindernia pyxidaria and Monochoria vaginalis); assay: as above; settings: 120 g/10a active ingredient, assessed 14 days after treatment, dry weight vs untreated area; for pest or weed control at 1200 g/ha: 336 h
In short: as §3

Echinochloa crus-galli [10] = assay: as above; settings: 120 g/10a active ingredient, assessed 14 days after treatment, dry weight vs untreated area
In short: as §3

Chenopodium album [11] = assay: Test Example 3: herbicidal effect test by treatment of dry field farming soil (one day after seeding); settings: 120 g/10a active ingredient, evaluated 14 days after treatment
In short: (§4)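 Weeds were seeded into the upper soil layer of alluvial field soil and, one day afterwards, the soil surface was sprayed with water-diluted emulsion delivering 120 g active ingredient per 10 ares. Mean plant dry weight relative to untreated pots after 14 days gave the herbicidal rate, tested in duplicate.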

southern crabgrass [12] = assay: as above; settings: 120 g/10a active ingredient, evaluated 14 days after treatment
In short: as §4

Echinochloa crus-galli [13] = assay: as above; settings: 120 g/10a active ingredient, evaluated 14 days after treatment
In short: as §4

Amaranthus viridis [14] = assay: as above; settings: 120 g/10a active ingredient, evaluated 14 days after treatment
In short: as §4

| Structure (SMILES) | Herbicidal rate (%) Scirpus juncoides (Scirpus juncoides [1]) | Herbicidal rate (%) Lindernia pyxidaria ([2]; Lindernia pyxidaria) | Herbicidal rate (%) Monochoria vaginalis ([2]; Monochoria vaginalis) | Herbicidal rate (%) Echinochloa crus-galli (Echinochloa crus-galli [3]) | herbicidal effect (herbicidal rate), Chenopodium album (Chenopodium album [4]) | herbicidal effect (herbicidal rate), southern crabgrass (southern crabgrass [5]) | herbicidal effect (herbicidal rate), Echinochloa crus-galli (Echinochloa crus-galli [6]) | herbicidal effect (herbicidal rate), Amaranthus viridis (Amaranthus viridis [7]) | Herbicidal rate (%) Scirpus juncoides (Scirpus juncoides [8]) | Herbicidal rate (%) Lindernia pyxidaria ([9]; Lindernia pyxidaria) | Herbicidal rate (%) Monochoria vaginalis ([9]; Monochoria vaginalis) | Herbicidal rate (%) Echinochloa crus-galli (Echinochloa crus-galli [10]) | herbicidal rate, Chenopodium album (Chenopodium album [11]) | herbicidal rate, southern crabgrass (southern crabgrass [12]) | herbicidal rate, Echinochloa crus-galli (Echinochloa crus-galli [13]) | herbicidal rate, Amaranthus viridis (Amaranthus viridis [14]) | further results |
| --- | --- | --- | --- | --- | --- | --- | --- | --- | --- | --- | --- | --- | --- | --- | --- | --- | --- |
| Cc1c(Cc2ccccc2N(C(=O)CC(C)C)S(=O)(=O)C(F)(F)F)c(=O)on1C(C)c1ccccc1 (centres unmarked) [Compound 1-359] | 90% | 90% | 90% | 90% | 40% | 90% | 90% | 40% | 90% | 90% | 90% | 90% | 90% | 90% | 90% | 90% | – |
| Cc1c(Cc2ccccc2N(C(=O)OCc2ccccc2)S(=O)(=O)C(F)(F)F)c(=O)on1C(C)(C)C [Compound 1-781] | 90% | 90% | 90% | 90% | 40% | 90% | 90% | 40% | 90% | 90% | 90% | 90% | 90% | 90% | 90% | 90% | – |
| CCC(C)n1oc(=O)c(Cc2ccccc2N(C(=O)COC)S(=O)(=O)C(F)(F)F)c1C (centres unmarked) [Compound 1-444] | 90% | 90% | 90% | 90% | 40% | 90% | 90% | 40% | 90% | 90% | 90% | 90% | 90% | 90% | 90% | 90% | – |
| Cc1c(Cc2ccccc2N(C(=O)OC(C)C)S(=O)(=O)C(F)(F)F)c(=O)on1C(C)c1ccccc1 (centres unmarked) [Compound 1-653] | 90% | 90% | 90% | 90% | 40% | 90% | 90% | 40% | 90% | 90% | 90% | 90% | 90% | 90% | 90% | 90% | – |
| CCC(C)CCn1oc(=O)c(Cc2ccccc2N(S(=O)(=O)C(F)(F)F)S(=O)(=O)C(F)(F)F)c1C (centres unmarked) [Compound 1-978] | 90% | 90% | 80% | 100% | 40% | 50% | 60% | 40% | 60% | 50% | 60% | 100% | 90% | 90% | 80% | 90% | – |
| CC(=O)N(c1ccccc1Cc1c(C)n(CC(C)C)oc1=O)S(=O)(=O)C(F)(F)F [Compound 1-297, N-[2-[(2-isobutyl-3-methyl-5-oxoisoxazol-4-yl)methyl]phenyl]-N-(trifluoromethylsulfonyl)acetamide] | – | – | – | – | – | – | – | – | – | – | – | – | – | – | – | – | pest or weed control at 1200 g/ha (Scirpus juncoides [1]; in Schoenoplectiella juncoides, 336 h, read-out: Herbicidal rate (%) Scirpus juncoides): 100%; pest or weed control at 1200 g/ha ([2]; Monochoria vaginalis, read-out: Herbicidal rate (%) Monochoria vaginalis): 100%; pest or weed control at 1200 g/ha ([2]; in Lindernia, Lindernia pyxidaria, read-out: Herbicidal rate (%) Lindernia pyxidaria): 100%; pest or weed control at 1200 g/ha (Echinochloa crus-galli [3]; in Echinochloa crus-galli, 336 h, read-out: Herbicidal rate (%) Echinochloa crus-galli): 100%; pest or weed control at 1200 g/ha (Chenopodium album [4]; Chenopodium album, 336 h, read-out: herbicidal effect (herbicidal rate), Chenopodium album): 40%; pest or weed control at 1200 g/ha (southern crabgrass [5]; Digitaria ciliaris, 336 h, read-out: herbicidal effect (herbicidal rate), southern crabgrass): 60%; pest or weed control at 1200 g/ha (Echinochloa crus-galli [6]; Echinochloa crus-galli, 336 h, read-out: herbicidal effect (herbicidal rate), Echinochloa crus-galli): 80%; pest or weed control at 1200 g/ha (Amaranthus viridis [7]; Amaranthus viridis, 336 h, read-out: herbicidal effect (herbicidal rate), Amaranthus viridis): 40%; pest or weed control at 1200 g/ha (Scirpus juncoides [8]; Schoenoplectiella juncoides, 336 h, read-out: herbicidal rate (%) Scirpus juncoides): 90%; pest or weed control at 1200 g/ha ([9]; Lindernia pyxidaria, read-out: herbicidal rate (%) Lindernia pyxidaria): 100%; pest or weed control at 1200 g/ha ([9]; Monochoria vaginalis, read-out: herbicidal rate (%) Monochoria vaginalis): 90%; pest or weed control at 1200 g/ha (Echinochloa crus-galli [10]; Echinochloa crus-galli, 336 h, read-out: herbicidal rate (%) Echinochloa crus-galli): 100%; pest or weed control at 1200 g/ha (Chenopodium album [11]; Chenopodium album, 336 h, read-out: herbicidal rate, Chenopodium album): 90%; pest or weed control at 1200 g/ha (southern crabgrass [12]; Digitaria ciliaris, 336 h, read-out: herbicidal rate, southern crabgrass): 90%; pest or weed control at 1200 g/ha (Echinochloa crus-galli [13]; Echinochloa crus-galli, 336 h, read-out: herbicidal rate, Echinochloa crus-galli): 100%; pest or weed control at 1200 g/ha (Amaranthus viridis [14]; Amaranthus viridis, 336 h, read-out: herbicidal rate, Amaranthus viridis): 90% |
| CCC(CC)n1oc(=O)c(Cc2ccccc2N(C(=O)CC(C)C)S(=O)(=O)C(F)(F)F)c1C [Compound 1-353] | 90% | 90% | 90% | 90% | 40% | 90% | 90% | 40% | 90% | 90% | 90% | 90% | 90% | 90% | 90% | 90% | – |
| C=C(C)Cn1oc(=O)c(Cc2ccccc2NS(=O)(=O)C(F)(F)F)c1C [Compound 1-137] | 90% | 90% | 70% | 90% | 0% | 0% | 80% | 80% | 80% | 40% | 60% | 90% | 40% | 50% | 70% | 40% | – |
